We go through 28 compounds from ChEMBL document CHEMBL5226287, “Small organic molecules targeting the energy metabolism of Mycobacterium tuberculosis” (Eur J Med Chem, 2021).

Molecules are shown by their SMILES. Converted amounts (≈) assume the structure as drawn. Starred links: 1 amine or outer side, 2 acyl side, 3 side chain; linkers in the order of their positions; H or OH if unused. Non-standard residues stand in square brackets, D forms with d. Residues, ends and D or L forms follow the SMILES beside them. ξ: configuration not given here. *: point of attachment. X1 = CCC(=O)C[C@@H](O)C[C@@H](C)C[C@H](N[*:1])C(=O)[*:2]; Alaψ(CH2NMeCH2CH2OH) = C[C@@H](CN(C)CCO)N*; Decanoyl(2R-Me) = CCCCCCCC[C@@H](C)C(=O)*; Ile(3ξ) = CCC(C)[C@H](N)C(=O)O; ξβ3hP = O=C(O)CC1CCCN1; Aib = CC(C)(N)C(=O)O

Series [1] deals with Mycobacterium tuberculosis. In words: Inhibition of ATP synthesis in Mycobacterium tuberculosis H37Rv derived membrane vesicle incubated for 60 mins by luciferase based assay. Type of series: functional. The note with it: 1 h.
Series [2] has as its system Mycobacterium tuberculosis. The experiment in a line: Antibacterial activity against ATP synthesis in Mycobacterium tuberculosis H37Rv derived membrane vesicle incubated for 60 mins by luciferase based assay. The class given is functional. The note with it: 1 h.
Series [3] concerns Mycobacterium tuberculosis. The experiment in a line: Antimycobacterial activity against Mycobacterium tuberculosis H37Rv after 14 days. The class given is functional. The note with it: 336 h, time 14 day.
In series [4] the test system is Mycobacterium tuberculosis. The experiment in a line: Antitubercular activity against Mycobacterium tuberculosis H37Rv infected in THP-1 cells assessed as intracellular bacterial growth measured over 6 days. The class given is functional. The note with it: 144 h, time 6 day.
The nature of series [5]: Inhibition of Mycobacterium tuberculosis TFP incubated for 60 mins by UPLC based assay.
For series [6], the system named is Mycobacterium tuberculosis. In words: Antimycobacterial activity against Mycobacterium tuberculosis H37Rv. Type of series: functional, organism-based.
The subject of series [7] is Mycobacterium tuberculosis. In words: Antibacterial activity against Mycobacterium tuberculosis H37Rv ATCC 27294 assessed as reduction in microbial growth in GAST media. Type of series: functional.
A short description of series [8]: Kinetic aqueous solubility of the compound in 2.5% DMSO/PBS at pH 7.4 incubated for 2 hrs by nephelometry analysis. The note with it: PBS with 2.5% DMSO, read-out: Kinetic_solubility. The class given is physicochemical.
In series [9] the test system is Mycobacterium tuberculosis. In words: Antibacterial activity against Mycobacterium tuberculosis H37Rv-LP ATCC 25618 assessed reduction in bacterial growth by microplate alamar blue assay. The class given is functional.
In series [10] the test system is Mycobacterium tuberculosis. In words: Antibacterial activity against Mycobacterium tuberculosis H37Rv ATCC 25618 assessed as complete inhibition of bacterial growth measured after 5 days by spectrophotometry method. Type of series: functional. The note with it: H37Rv ATCC 25618, 120 h, time 5 day.
For series [11], the system named is Mycobacterium tuberculosis. The experiment in a line: Antitubercular activity against Mycobacterium tuberculosis H37Rv assessed as growth inhibition in presence of ATP. Type of series: functional.
The nature of series [12]: Inhibition of Mycobacterium smegmatis ptpB expressed in Escherichia coli […] cells in the presence of ATP cells using 6,8-difluoromethylumbelliferyl phosphate as substrate incubated for 30 mins by fluorescence based assay. Also noted: species or system Mycolicibacterium smegmatis.
The subject of series [13] is Mycobacterium tuberculosis. In words: Antibacterial activity against Mycobacterium tuberculosis H37Rv in macrophages by CLSI broth microdilution method. The class given is functional.
For series [14], the system named is Mycobacterium tuberculosis. In words: Antibacterial activity against Mycobacterium tuberculosis H37Rv assessed as reduction bacterial growth after 14 days by micro broth dilution method. Type of series: functional. The note with it: 336 h, time 14 day.
Series [15] can be described thus: Inhibition of Mycobacterium tuberculosis H37Rv ATP synthase.
For series [16], the system named is Mycobacterium tuberculosis. The experiment in a line: Antibacterial activity against Mycobacterium tuberculosis H37Rv in the presence of ATP synthase. The class given is functional.
Series [17] concerns Mycobacterium tuberculosis. In words: Antibacterial activity against Mycobacterium tuberculosis H37Rv assessed as greater inhibition of microbial growth in presence of depletion of ATP levels by microplate alamar blue assay. Type of series: functional, organism-based.
For series [18], the system named is Mycobacterium tuberculosis. In words: Antibacterial activity against Mycobacterium tuberculosis H37Rv after 7 days by resazurin dye-based assay. Type of series: functional. The note with it: time 7 day.
Series [19] concerns Mycobacterium tuberculosis. The experiment in a line: Antibacterial activity against Mycobacterium tuberculosis assessed as inhibition of bacterial growth in the presence of NADH II dehydrogenase. Type of series: functional, organism-based.
Series [20] relates to Mycobacterium tuberculosis. The experiment in a line: Antibacterial activity against Mycobacterium tuberculosis H37Rv-MA ATCC 27294 assessed reduction in bacterial growth by microplate alamar blue assay. The class given is functional.
The next series relates to HepG2. In words: Cytotoxicity against human HepG2 cells assessed as cell viability at 100 uM by MTT assay. The note with it: read-out: TD50 (the source's name). Type of series: functional.
The test system of series [21] is Mycobacterium tuberculosis. In words: Antitubercular activity against Mycobacterium tuberculosis H37Rv incubated for 14 days in GAST/FE medium by Alamar blue assay. Type of series: functional. The note with it: 336 h, time 14 day.
For series [22], the system named is Mycobacterium tuberculosis. The experiment in a line: Antitubercular activity against Mycobacterium tuberculosis H37Rv assessed as inhibition of bacterial growth by fluorescence based analysis. Type of series: functional.
The subject of series [23] is Mycolicibacterium smegmatis. The experiment in a line: Antibacterial activity against Mycobacterium smegmatis assessed as inhibition of bacterial growth in the presence of NADH II dehydrogenase. Type of series: functional, organism-based.
For series [24], the system named is Mycobacterium tuberculosis. The experiment in a line: Antibacterial activity against Mycobacterium tuberculosis H37Rv ATCC assessed as reduction in bacterial growth by microdilution method. The class given is functional.
In series [25] the test system is Mycobacterium tuberculosis. The experiment in a line: Antibacterial activity against Mycobacterium tuberculosis cytochrome bd oxidase assessed as reduction in bacterial growth in the presence of resazurin reduction under by microdilution method. The class given is functional.
The test system of series [26] is Mycobacterium tuberculosis. The experiment in a line: Antibacterial activity against Mycobacterium tuberculosis cytochrome bd oxidase assessed as reduction in bacterial growth in the presence of resazurin reduction under microplate alamarBlue assay. The class given is functional.
The subject of series [27] is Mycobacterium tuberculosis. In words: Antibacterial activity against Mycobacterium tuberculosis H37Rv assessed as reduction in bacterial growth in the presence of resazurin reduction under microplate alamarBlue assay. The class given is functional.
In series [28] the test system is Mycobacterium tuberculosis. In words: Antibacterial activity against Mycobacterium tuberculosis H37Rv assessed as inhibition of bacterial growth by microdilution method. Type of series: functional.
Series [29] can be described thus: Lipophilicity, log P of the compound at pH 6.5. Type of series: physicochemical. The note with it: buffer.

In series [1], `Nc1c2c(nc3sc4c(c13)CCCCC4)CCCC2` registered a concentration for half-maximal inhibition (IC50) of 3400 nM. For the same compound, in series [2], the MIC50 came to 1.7 µM (≈ 0.463 µg/mL). `O=C(/C=C/c1cccs1)N1CCN(Cc2ccc3c(c2)OCO3)CC1`: the MIC is 0.05 µM (≈ 0.0178 µg/mL) in [3] and 0.4 µM (≈ 0.143 µg/mL) in [4]. The compound also returned an IC50 in series [5] of 0.1 µg/mL (≈ 0.281 µM).

In the case of `Cc1ccn2c(C(=O)NCc3ccccc3)c(C)nc2c1`, the 50% inhibitory concentration (IC50) in [6] is 150 nM. With `O=C(CSc1nc2ccccc2c(=O)[nH]1)NC1CCCCC1`, in series [7], the MIC came out at 0.3 µM. Moreover, the solubility kinetic at 2 h in series [8] turned out to be 83 µM (≈ 26.3 µg/mL). `CCc1nc2ccc(C)cc2n1CCCCOc1ccccc1` had an MIC50 in series [9] of 0.34 µM (≈ 0.105 µg/mL). Turning to `CCc1nc2ccccc2n1CCCCNc1ccccc1`, in [10], the MIC99 worked out at 0.47 µM (≈ 0.138 µg/mL). With `CCc1nc2ccc(C)cc2n1CCCNc1ccc(C)cc1`, the MIC99 in series [10] turned out to be 0.061 µM (≈ 0.0188 µg/mL). Turning to `O=C(CNC1CCCCC1)N(c1ccccc1)c1ccccc1`, in series [11], the MIC came to 5.23 µg/mL. As to `COc1ccc(/C=C2/S/C(=N/N=C/c3ccccc3O)NC2=O)cc1`, the IC50 in [12] was found to be 312 nM. In addition, the MIC90 amounted to 4 µg/mL (≈ 11.3 µM) in series [13] and 0.5 µg/mL (≈ 1.41 µM) in series [14]. On to `O=C(CNC1CCCC1)N(c1ccccc1)c1ccccc1`, for which the MIC in series [11] was found to be 6.25 µg/mL. In series [15], `CN(C)Cc1ccc(-c2cc3cc(Br)ccc3nc2OCc2ccncc2)cc1` gave an IC50 of 20300 nM. The minimum inhibitory concentration (MIC) in series [16] turned out to be 0.43 µg/mL. On to `CCCCNc1nc(CC)nc2sc(C)cc12`, for which the IC50 in [17] was 840 nM. Compound `CCSc1nc(NC)c2ccc(F)c(F)c2n1` gave a TD50 in series [18] of 0.02 µg/mL. Turning to `C=CCN1NC(C(=O)N2CCSCC2)C2CC(NCc3ccc(Cl)s3)CCC21` (stereo not drawn), the IC50 in [19] worked out at 64.7 nM.

Consider `CCc1nc2ccccc2n1CCCCSc1nc(-c2ccccc2)cs1`, for which the MIC50 in series [20] was 5.3 µM (≈ 2.09 µg/mL). In [18], `CCNc1nc(SCC)nc2ccccc12` came in with a TD50 of 0.09 µg/mL. Moreover, in the series on HepG2, the CC50 was greater than 5 µg/mL. For the compound `O=C(CSc1nc2ccccc2c(=O)[nH]1)NC1CCC(F)(F)CC1`, the MIC in series [7] was found to be 0.5 µM. Regarding `CN(C)CCN1CCN(c2ccc(-c3cc4cc(Br)ccc4nc3OCc3ccc4ccccc4c3)cc2)CC1`, in [15], the IC50 is 38800 nM. The minimum inhibitory concentration (MIC) in series [16] stood at 0.44 µg/mL. Consider `CCc1ccn2c(C(=O)NCc3ccc(C)cc3)c(C)nc2c1`, for which, in series [21], the lowest concentration to inhibit growth (MIC) was 0.004 µM (≈ 0.00123 µg/mL).

With `Cc1ccc2nc(C)c(C(=O)NCc3ccc(Cl)nc3)n2c1`, the MIC in [22] came out at 5 µM (≈ 1.57 µg/mL).

`Cc1ccn2c(C(=O)NCc3cccc(OC(C)C)c3)c(C)nc2c1` came in with an IC50 in series [6] of 390 nM. In the case of `O=C(/C=C/c1cscn1)N1CCN(Cc2ccc3c(c2)OCO3)CC1`, the minimum inhibitory concentration (MIC) came out at 0.1 µM (≈ 0.0357 µg/mL) in series [3] and 0.6 µM (≈ 0.214 µg/mL) in [4]. As for `O=C(CSc1nc2cccc(F)c2c(=O)[nH]1)NC1CCC(F)(F)CC1`, the IC50 in [23] was 10.7 nM. In the case of `Cc1ccc2nc(C)c(C(=O)NCc3ccc(C(F)(F)F)cc3)n2c1`, in series [22], the MIC was 0.03 µM (≈ 0.0104 µg/mL). For `O=C(CSc1nc2ccccc2c(=O)[nH]1)NCC1CCC(F)(F)CC1`, in [7], the MIC stood at 0.8 µM. The IC90 in series [24] turned out to be 5100 nM. Besides, the solubility kinetic at 2 h in [8] came out at 250 µM (≈ 91.9 µg/mL).

Consider `COc1ccc(CNC(=O)c2c(C)nc3ccc(Br)cn23)cc1`, for which the minimum inhibitory concentration (MIC) in series [25] was less than 0.024 µM; in series [26] it was less than 0.024 µM; in [27], 0.15 µM; in series [28] it was greater than 50 µM. On to `CCCCCCCC[C@@H](C)C(=O)N1CCCC1CC(=O)N[C@@H](C[C@H](C)C[C@H](O)CC(=O)CC)C(=O)NC(C)(C)C(=O)NC(C)(C)C(=O)N[C@H](C(=O)N[C@H](C(=O)NC(C)(C)C(=O)NC(C)(C)C(=O)N[C@@H](C)CN(C)CCO)C(C)C)C(C)CC` (stereo partly drawn) ({Decanoyl(2R-Me)}-[ξβ3hP][X1][Aib][Aib][Ile(3ξ)]V[Aib][Aib]-{Alaψ(CH2NMeCH2CH2OH)}), for which the logD in series [29] was 4.37.

Compound `Cc1ccc(-c2nc3ccc(C)cn3c2CC(=O)N(C)C)cc1` [ZOLPIDEM] came in with a minimal inhibitory concentration (MIC) in [21] of 10 µM (≈ 3.07 µg/mL).
